{"source": "patent US8703756B2", "about": "“Synthetic procedure and cancer treatment with cisplatin derivatives” (The Board of Regents of the Nevada System of Higher …, priority 2012, dated 2014)", "key": {"[1]": {"tested_on": "A549 human lung cancer cells", "assay": "MTS cell proliferation assay, A549 lung cancer cells", "assay_type": "cell-based", "details": "for effects in this experimental setting: human cancer cell line setting of b48", "protocol": "A series of cisplatin analogs of the formula (4,4′-bis[RO]-2,2′-bipyridine)PtCl2 [where, R=—(CH2)nCH3, —(CH2)nOCH3, —(CH2)n[O(CH2)m]yO(CH2)zCH3 (n=1-10; m, y, z=0-10)] were synthesized and characterized using ^1H NMR, ^13C NMR spectroscopy, and elemental analysis. The antitumor activities of these compounds were examined in a lung cancer cell line (A549) using the MTS cell proliferation assay and the results were compared to that of cisplatin and cisplatin derivatives.\n(§1) Cells were cultured at a density of 2.1×10^3 cells per well in flat bottomed 96-well plates in 100 μl of medium supplemented with 10% fetal bovine serum (FBS), 25 mM HEPES buffer (pH 7.4), Penicillin (100 U/ml) and Streptomycin (100 μg/ml) and incubated at 37° C. in a humidified, 5% CO2 atmosphere for 2 days. The cells were then treated with DMSO or the appropriate drugs for 1 hour, washed thrice with 100 μl phosphate buffered saline (PBS), and incubated in 100 μl of fresh medium. After 2 days, the medium was replace with 120 μl of medium containing 50 μM phenazine ethosulfate (PES) and 317 μg/mL CellTiter 96® Aqueous One Solution Reagent (MTS) (Promega, Madison, Wis.). After 4 hours in culture the cell viability was determined by measuring the absorbance at 490 nm using a Tecan Infinite M1000 plate reader.\nCells were treated with CDDP or the platinum analogs at various concentrations for 1 hour and the viability was determined 48 h post-treatment using the MTS assay.\nCells were treated with CDDP or the platinum analogs at various concentrations for 48 hour and the viability was determined post-treatment using the MTS assay."}, "[2]": {"details": "tested on mice; cited from earlier work"}, "[3]": {"tested_on": "DU-145 human prostate cancer cells", "assay": "MTS assay, DU-145 prostate cancer cells", "assay_type": "cell-based", "details": "DU-145, up to a 1 mM concentration", "protocol": "as §1\n(§2) Cells were treated with CDDP or the platinum analog at various concentrations for 1 hour and the viability was determined 48 h post-treatment using the MTS assay.\n(§3) This is a table comparison of EC50 (μM) determined from MTS assay data of the various cell lines treated with CDDP or the analog where R=(CH2)3CH3."}, "[4]": {"tested_on": "MCF7 human breast cancer cells", "assay": "MTS assay, MCF7 breast cancer cells", "assay_type": "cell-based", "details": "MCF7, up to a 1 mM concentration", "protocol": "as §1, §2, §3"}, "[5]": {"tested_on": "T-47D human breast cancer cells", "assay": "MTS assay, T-47D breast cancer cells", "assay_type": "cell-based", "details": "up to a 1 mM concentration", "protocol": "as §1, §2, §3"}, "[6]": {"tested_on": "HCC38 human breast cancer cells", "assay": "MTS assay, HCC38 breast cancer cells", "assay_type": "cell-based", "details": "HCC38, up to a 1 mM concentration", "protocol": "as §1, §2, §3"}, "[7]": {"tested_on": "MDA-MB-435 human melanoma cancer cells", "assay": "MTS assay, MDA-MB-435 melanoma cancer cells", "assay_type": "cell-based", "details": "MDA-MB-435, up to a 1 mM concentration", "protocol": "as §1, §2, §3"}}, "data": [{"compound": "O=C(O)C(=O)O.[NH-][C@@H]1CCCC[C@H]1[NH-].[Pt+2]", "note": "[oxaliplatin]", "values": [{"measurement": "effects in this experimental setting", "setting": "[1]", "result": "lack of effects"}]}, {"compound": "N.N.O=C([O-])C1(C(=O)[O-])CCC1.[Pt+2]", "note": "[carboplatin]", "values": [{"measurement": "effects in this experimental setting", "setting": "[1]", "result": "lack of effects"}]}, {"compound": "Pd(II)(cis-2,2′-bipyridine)(NO3)2", "values": [{"measurement": "percent increased life span (% ILS)", "setting": "[2]", "result": "55-70%"}]}, {"compound": "N.N.[Cl][Pt][Cl]", "note": "[cisplatin, cis-diamminedichloroplatinum]", "values": [{"measurement": "effectiveness, 48 h treatment", "setting": "[1]; A549, concentrations higher than 500 μM", "result": "not very effective"}, {"measurement": "effects in this experimental setting", "setting": "[1]", "result": "lack of effects"}, {"measurement": "effect on the A549 cells", "setting": "[1]; one hour treatment, up to a 1 mM concentration", "result": "no effect"}, {"measurement": "effect on the cell line", "setting": "[3]", "result": "little or no effect"}, {"measurement": "effect on the cell line", "setting": "[4]", "result": "little or no effect"}, {"measurement": "effect on the cell line", "setting": "[5]", "result": "little or no effect"}, {"measurement": "effect on the cell line", "setting": "[6]", "result": "little or no effect"}, {"measurement": "effect on the cell line", "setting": "[7]", "result": "little or no effect"}, {"measurement": "percent increased life span (% ILS)", "setting": "[2]", "result": "65-80%"}]}]}
